Each compound was assayed against T1, glucocorticoid receptor (Homo sapiens, UniProt P04150) (assay: Ligand binding assay (GRBind), 3H-dexamethasone displacement in HeLa cell lysate). Settings: 3H-DEX tracer.
T1 construct: endogenous in cells; host or cells: HeLa (ATCC) cell lysate supernatant
T1 sequence (P04150 1-777): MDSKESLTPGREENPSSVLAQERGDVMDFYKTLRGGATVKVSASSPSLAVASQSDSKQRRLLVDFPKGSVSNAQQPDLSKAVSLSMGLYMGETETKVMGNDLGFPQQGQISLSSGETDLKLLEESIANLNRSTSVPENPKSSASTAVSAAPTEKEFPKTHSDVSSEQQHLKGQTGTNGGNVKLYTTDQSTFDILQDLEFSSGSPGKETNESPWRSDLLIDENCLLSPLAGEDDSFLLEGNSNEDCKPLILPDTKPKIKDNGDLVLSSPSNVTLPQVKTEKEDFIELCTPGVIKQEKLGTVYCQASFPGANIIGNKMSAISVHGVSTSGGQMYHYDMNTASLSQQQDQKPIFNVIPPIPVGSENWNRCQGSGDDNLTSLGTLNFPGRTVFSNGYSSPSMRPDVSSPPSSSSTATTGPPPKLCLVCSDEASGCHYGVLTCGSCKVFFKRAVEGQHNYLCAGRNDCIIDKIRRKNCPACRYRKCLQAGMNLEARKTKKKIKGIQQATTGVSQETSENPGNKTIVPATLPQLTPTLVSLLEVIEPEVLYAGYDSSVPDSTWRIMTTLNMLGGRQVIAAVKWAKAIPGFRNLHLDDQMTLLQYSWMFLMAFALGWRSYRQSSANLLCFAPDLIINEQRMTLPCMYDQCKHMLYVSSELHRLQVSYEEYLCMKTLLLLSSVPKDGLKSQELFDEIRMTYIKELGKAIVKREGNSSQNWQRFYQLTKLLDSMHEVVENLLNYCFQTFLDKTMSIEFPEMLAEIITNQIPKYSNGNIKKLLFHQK
Method: Binding Buffer: TEGM (10 mM Tris-HCl, 1 mM EDTA, 10% glycerol, 1 mM betamecaptoethanol, 10 mM Sodium Molybdate, pH 7.2)
50% HAP Slurry: Calbiochem Hydroxylapatite, Fast Flow, in 10 mM Tris, pH 8.0 and 1 mM EDTA.
Wash Buffer: 40 mM Tris, pH7.5, 100 mM KCl, 1 mM EDTA and 1 mM EGTA. 95% EtOH Dexmethasone-methyl-3H, (DEXA*); (Amersham cat#TRK645) Dexamethasone(DEX) (Sigma, cat#01756):
Hydroxylapatite Fast Flow; Calbiochem Cat#391947
25 Molybdate=Molybdic Acid (Sigma, M1651)
5 Cells (Hall R. E., et al., European Journal of Cancer, 30A: 484-490 (1994)) HeLa (ATCC) cultured in RPMI 1640 (Gibed 11835-055) containing 20 mM Hepes, 4 mM L-glu, 10 ug/ml of human insulin (Sigma, 1-0259), 10% FBS and 20 uglml of Gentamicin (Gibco#15710072) are rinsed twice in PBS. Phenol red-free Trypsin-EDTA is diluted in the same PBS 1:10. The cell layers are rinsed with IX Trypsin, extra Trypsin is poured out, and the cell layers are incubated at 37° C. for 2 min. The flask is tapped and checked for signs of cell detachment. Once the cells begin to slide off the flask, the complete media is added. The cells are counted at this point, then diluted to the appropriate concentration and split into flasks or dishes for further culturing (Usually 1:3 to 1:6 dilution).
Preparation of HeLa Cell Lysate
When the cells are 70 to 85% confluent, they are detached as described above, and collected by centrifuging at 1000 g for 10 min at 4° C. The cell pellet is washed twice with TEGM (10 mM Tris-HCl, 1 mM EDTA, 10% glycerol, 1 mM beta-mercaptoethanol, 10 mM Sodium Molybdate, pH 7.2). After the final wash, the cells are resuspended in TEGM at a concentration of 10^7 cells/mL. The cell suspension is snap frozen in liquid nitrogen or ethanol/dry ice bath and transferred to −80° C. freezer on dry ice. Before setting up the binding assay, the frozen samples are left on ice-water to just thaw. Then the samples are centrifuged at 12,500 g to 20,000 g for 30 min at 4° C. The supernatant is used to set-up assay right away. If using 50 μL of supernatant, the test compound can be prepared in 50 μL of the TEGM buffer.
Procedure for Multiple Compound Screening
1×TEGM buffer is prepared, and the isotope-containing assay mixture is prepared in the following order: EtOH (2% final concentration in reaction), 3H-DEX (Amersham Biosciences) and 1×TEGM. [e.g. For 100 samples, 200 JlL (100×2) of EtOH+4.25 JlL of 1:10 ^3H-Dex stock+2300 μL (100×23) 1×TEGM]. The compound is serially diluted, e.g., if starting final conc. is 1 μM, and the compound is in 25 μL of solution, for duplicate samples, 75 μL of 4×1 μM solution is made and 3 μL of 100). 1M is added to 72 μL of buffer, and 1:5 serial dilution.
25 μL of ^3H-DEX (6 nM) trace and 25 μL, compound solution are first mixed together, followed by addition of 50 μL receptor solution. The reaction is gently mixed, spun briefly at about 200 rpm and incubated at 4° C. overnight. 100 μL of 50% HAP slurry is prepared and added to the incubated reaction which is then vortexed and incubated on ice for 5 to 10 min. The reaction mixture is vortexed twice more to resuspend HAP while incubating reaction. The samples in 96-well format are then washed in wash buffer using the FilterMate™ Universal Harvester plate washer (Packard). The washing process transfers HAP pellet containing ligand-bound expressed receptor to Unifilter-96 GFIB filter plate (Packard). The HAP pellet on the filter plate is incubated with […] of MICROSCINT (Packard) scintillant for 30 min before being counted on the TopCount microscintillation counter (Packard). IC50s are calculated using DEX as a reference.

| SMILES | Ki [nM] |
| --- | --- |
| NC(=O)c1cccnc1CC[C@]1(O)CCC2=Cc3c(cnn3-c3ccc(F)cc3)C[C@@]21C1CC1 [Example 1, 2-{2-[(4aR,5R)-4a-Cyclopropyl-1-(4-fluorophenyl)-5-hydroxy-1,4,4a,5,6,7-hexahydrocyclopenta[f]indazol-5-yl]ethyl}pyridine-3-carboxamide] | 4.51 |
| NC(=O)c1cc(F)cnc1CC[C@]1(O)CCC2=Cc3c(cnn3-c3ccc(F)cc3)C[C@@]21C1CC1 [Example 4, 2-{2-[(4aR,5R)-4a-Cyclopropyl-1-(4-fluorophenyl)-5-hydroxy-1,4,4a,5,6,7-hexahydrocyclopenta[f]indazol-5-yl]ethyl}-5-fluoropyridine-3-carboxamide] | 1.98 |
| CC[C@]12Cc3cnn(-c4cccnc4)c3C=C1CC[C@@]2(O)CCc1ccccc1C#N [Example 5, 2-{2-[(4aS,5R)-4a-Ethyl-5-hydroxy-1-(pyridin-3-yl)-1,4,4a,5,6,7-hexahydrocyclopenta[f]indazol-5-yl]ethyl}benzonitrile] | 2.01 |
| CC[C@]12Cc3cnn(-c4ccccc4)c3C=C1CC[C@@]2(O)CCc1ccc(F)cc1C(N)=O [Example 6] | 3.17 |
| NC(=O)c1ccccc1CC[C@]1(O)CCC2=Cc3c(cnn3-c3cccc(F)c3)C[C@@]21C1CC1 [Example 7, 2-{2-[(4aR,5R)-4a-Cyclopropyl-1-(3-fluorophenyl)-5-hydroxy-1,4,4a,5,6,7-hexahydrocyclopenta[f]indazol-5-yl]ethyl}benzamide] | 3.22 |
| CC[C@]12Cc3cnn(-c4ccc(F)cc4)c3C=C1CC[C@@]2(O)CCc1ccc(F)cc1C(N)=O [Example 8, 2-{2-[(4aS,5R)-4a-Ethyl-1-(4-fluorophenyl)-5-hydroxy-1,4,4a,5,6,7-hexahydrocyclopenta[f]indazol-5-yl]ethyl}-5-fluorobenzamide] | 1.27 |
| CC[C@]12Cc3cnn(-c4cccnc4)c3C=C1CC[C@@]2(O)CCc1ccc(F)cc1C#N [Example 9, 2-{2-[(4aS,5R)-4a-Ethyl-5-hydroxy-1-(pyridin-3-yl)-1,4,4a,5,6,7-hexahydrocyclopenta[f]indazol-5-yl]ethyl}-5-fluorobenzonitrile] | 1.99 |
| CC[C@]12Cc3cnn(-c4cccnc4)c3C=C1CC[C@@]2(O)CCc1cccc(F)c1C#N [Example 10, 2-{2-[(4aS,5R)-4a-Ethyl-5-hydroxy-1-(pyridin-3-yl)-1,4,4a,5,6,7-hexahydrocyclopenta[f]indazol-5-yl]ethyl}-6-fluorobenzonitrile] | 2.59 |
| CC[C@]12Cc3cnn(-c4cccc(F)c4)c3C=C1CC[C@@]2(O)CCc1ccccc1C(N)=O [Example 11, 2-{2-[(4aS,5R)-4a-Ethyl-1-(3-fluorophenyl)-5-hydroxy-1,4,4a,5,6,7-hexahydrocyclopenta[f]indazol-5-yl]ethyl}benzamide] | 3.22 |
| CC[C@]12Cc3cnn(-c4cccc(F)c4)c3C=C1CC[C@@]2(O)CCc1cccc(F)c1C(N)=O [Example 12, 2-{2-[(4aS,5R)-4a-Ethyl-1-(3-fluorophenyl)-5-hydroxy-1,4,4a,5,6,7-hexahydrocyclopenta[f]indazol-5-yl]ethyl}-6-fluorobenzamide] | 1.85 |
| CC[C@]12Cc3cnn(-c4cccnc4)c3C=C1CC[C@@]2(O)CCc1ccccc1C(N)=O [Example 13, 2-{2-[(4aS,5R)-4a-Ethyl-5-hydroxy-1-(pyridin-3-yl)-1,4,4a,5,6,7-hexahydrocyclopenta[f]indazol-5-yl]ethyl}benzamide] | 28.4 |
| CC[C@]12Cc3cnn(-c4cccnc4)c3C=C1CC[C@@]2(O)CCc1cccc(F)c1C(N)=O [Example 14, 2-{2-[(4aS,5R)-4a-Ethyl-5-hydroxy-1-(pyridin-3-yl)-1,4,4a,5,6,7-hexahydrocyclopenta[f]indazol-5-yl]ethyl}-6-fluorobenzamide] | 8.68 |
| CC[C@]12Cc3cnn(-c4ccccc4)c3C=C1CC[C@@]2(O)CCc1cccc(F)c1C#N [Example 15, 2-{2-[(4aS,5R)-4a-Ethyl-5-hydroxy-1-phenyl-1,4,4a,5,6,7-hexahydrocyclopenta[f]indazol-5-yl]ethyl}-6-fluorobenzonitrile] | 1.28 |
| CC[C@]12Cc3cnn(-c4ccc(F)cc4)c3C=C1CC[C@@]2(O)CCc1ccccn1 [Example 16, (4aS,5R)-4a-Ethyl-1-(4-fluorophenyl)-5-[2-(pyridin-2-yl)ethyl]-1,4,4a,5,6,7-hexahydrocyclopenta[f]indazol-5-ol] | 2.22 |
| CC[C@]12Cc3cnn(-c4ccc(F)cc4)c3C=C1CC[C@@]2(O)CCc1ncccc1F [Example 17, (4aS,5R)-4a-Ethyl-1-(4-fluorophenyl)-5-[2-(3-fluoropyridin-2-yl)ethyl]-1,4,4a,5,6,7-hexahydrocyclopenta[f]indazol-5-ol] | 1.44 |
| CC[C@]12Cc3cnn(-c4ccc(F)cc4)c3C=C1CC[C@@]2(O)CCc1cc(F)ccn1 [Example 18, (4aS,5R)-4a-Ethyl-1-(4-fluorophenyl)-5-[2-(4-fluoropyridin-2-yl)ethyl]-1,4,4a,5,6,7-hexahydrocyclopenta[f]indazol-5-ol] | 1.73 |

Now from value to compound:

| Ki [nM] | SMILES |
| --- | --- |
| 1.79 | NC(=O)C(O)c1ccccc1CC[C@]1(O)CCC2=Cc3c(cnn3-c3ccc(F)cc3)C[C@@]21C1CC1 (single isomer, unassigned) [Example 3b] |
| 11.3 | CC[C@]12Cc3cnn(-c4ccccc4)c3C=C1CC[C@@]2(O)CC(O)c1ccccn1 (single isomer, unassigned) [Example 67a] |
| 5.46 | CC[C@]12Cc3cnn(-c4ccccc4)c3C=C1CC[C@@]2(O)CC(O)c1ccccn1 (single isomer, unassigned) [Example 67b] |
| 4.41 | CC[C@]12Cc3cnn(-c4ccc(F)cc4)c3C=C1CC[C@@]2(O)CC(O)c1ccc(F)cn1 (single isomer, unassigned) [Example 69a] |
| 2.91 | CC[C@]12Cc3cnn(-c4ccc(F)cc4)c3C=C1CC[C@@]2(O)CC(O)c1ccc(F)cn1 (single isomer, unassigned) [Example 69b] |
| 2.83 | OC(C[C@]1(O)CCC2=Cc3c(cnn3-c3ccc(F)cc3)C[C@@]21C1CC1)c1ccc(F)cn1 (single isomer, unassigned) [Example 79a] |

Reference: patent US20120214847A1, “2-[1-PHENYL-5-HYDROXY-4a-SUBSTITUTED-HEXAHYDROCYCLOPENTA[F]INDAZOL-5-YL]ETHYL PHENYL DERIVATIVES AS GLUCOCORTICOID RECEPTOR LIGANDS” (Merck Sharp & Dohme Corp., priority 2009, published 2012)
